Like-named read-outs stand apart in the source and are kept apart here.
Key:
[1] = system: non-growing S. aureus DSM2569; experiment: Dilution-regrowth assay (OD600, start-growth-time) on stationary-phase S. aureus; format: cell-based, Staphylococcus aureus; details: for Regrowth, OD600 at 6h or 8h after dilution into drug-free medium: average; for OD600 at 8hr, Mean: after dilution into drug-free medium; for Regrowth: OD600 after dilution into drug-free medium (mean): OD600 at 6h or 8h
Method: The cultures were grown and treated for 24 h in 1:4 CA-MHB (pH 7.4).
This approach allowed us to capture the time when cultures reached a threshold optical density (start-growth-time, SGT[15]).
The cultures were incubated for 24 h in non-baffled Erlenmeyer flasks at 37 °C with shaking at 200 rpm.
For P. aeruginosa and S. aureus, dose–response analysis was conducted in 96-well plates with a 200 μl assay volume, following the procedure used for screening assay validation experiments. […] Stock solutions were prepared and stored according to the manufacturers’ instructions, then diluted in 10% DMSO before use. Cultures were incubated for 24 h in 1:4 diluted CA-MHB medium under the same conditions used for UPEC cultivation. In preliminary experiments, each compound was tested at a concentration of 20 μM in the dilution-regrowth assay with 4 technical replicates. Regrowth was monitored using a microplate reader at 37 °C with continuous shaking, and OD600 was recorded every 20 min. The time at which OD600 exceeded the threshold of 0.12 was recorded as the Start_Growth-Time.
Statistical significance of the drug effects was assessed using a one-way ANOVA followed by Dunnett’s test, comparing each treatment to the drug-free control. Statistical significance of the differences in chemical characteristics between the hit compounds and the Prestwick library was assessed using a Mann–Whitney test. Statistical significance was set at P ≤ 0.05. A five-parameter logistic equation was used for asymmetric sigmoidal curve fitting and for EC50 and IC50 determination. The Venn diagram in Fig. 1F was prepared using BioVenn web application. Characteristics of the chemical and physical properties of Prestwick library compounds were obtained from Supplementary Table S1 from reference. Characteristics of the hit compounds not included in the Prestwick library were retrieved from the PubChem database.

[2] = system: SOS response in UPEC CFT073; experiment: SOS response induction analysis, pAED2 cda' promoter mScarlet-I reporter; format: cell-based, Escherichia coli; details: 20 μM; for induction of the SOS response in growing UPEC cultures: 6 h, MMC, BLE, ECH in 1:4 CA-MHB pH 7.4, PLI, SAT, EVO in LPM pH 5.5
Method: Since we aimed to test SOS induction in non-growing cultures, it was essential to use a reporter with no leaky expression in the stationary phase. Therefore, we constructed the plasmid pAED2, based on the low copy-number plasmid pSC101, which contains the cda’ promoter in front of the mScarlet-I-encoding reporter gene.
Overnight cultures of CFT073 harboring a reporter plasmid were grown in 3 ml of LB supplemented with 100 µg/ml carbenicillin (Cb), then diluted 1:100 into the medium used for testing. For validation of the pANO1::cda’ reporter, an overnight culture was diluted into CA-MHB (supplemented with 40 mM HEPES, pH 7.4, and 100 µg/ml Cb) and grown to an OD600 ≈ 0.5 at 37 °C with shaking at 200 rpm in an Erlenmeyer flask. […] Empty wells were filled with water. […] The experiment was performed in triplicate.
For analysis of the SOS induction by anti-cancer compounds, the overnight cultures were diluted either into 1:4 diluted CA-MHB (40 mM HEPES, pH 7.4) or LPM (30 mM MES, pH 5.5) that were supplemented with 100 µg/ml Cb. For analysis of the effect on growing bacteria, the cultures were incubated at 37 °C with shaking at 200 rpm in Erlenmeyer flasks for 90 min, to an OD600 ≈ 0.5. Then, 180 μl aliquots were transferred to 96-well plates, and 20 μl of the 200 μM drug solution was added to achieve a final concentration of 20 μM. The plates were incubated in a microplate reader (BioTek Synergy H1) at 37 °C with continuous shaking for 6 h. OD600 and mScarlet fluorescence were recorded throughout the incubation.
For analysis of the effect of anti-cancer compounds on stationary phase- and regrowing bacteria, the cultures were incubated for 24 h at 37 °C with shaking at 200 rpm in Erlenmeyer flasks. […] The samples were incubated for 24 h at 37 °C in standing 1.5 ml tubes. Before and after the drug treatment, 25 μl aliquots were taken and diluted by mixing with 175 μl PBS. OD600 and mScarlet fluorescence were recorded using a microplate reader (BioTek Synergy H1).
After the treatment, stationary-phase bacteria were harvested by centrifugation at 5000 × g for 5 min at 20 °C, washed twice with PBS, and resuspended in 475 μl PBS.

[3] = Staphylococcus aureus, DSM2569, S. aureus, regrowth delay of non-growing bacteria, 1:4 CA-MHB pH 7.4, 24 h treatment, OD600 8 h after dilution, read-out: EC50
[4] = Staphylococcus aureus, DSM2569, pH 7.4
[5] = S. aureus, regrowth delay of non-growing bacteria, 1:4 CA-MHB pH 7.4, 24 h treatment, OD600 8 h after dilution, read-out: EC50

## N[C@@H]1CCCCN(c2c(F)cc3c(=O)c(C(=O)O)cn(C4CC4)c3c2Cl)C1 [Besifloxacin]
[1]; S. aureus, concentration 0.1
  Regrowth, OD600 at 6h or 8h after dilution into drug-free medium: 0.576
[1]; S. aureus, concentration 0.5
  Regrowth, OD600 at 6h or 8h after dilution into drug-free medium: 0.336
[1]; S. aureus, concentration 2.5
  Regrowth, OD600 at 6h or 8h after dilution into drug-free medium: 0.134
[1]; S. aureus, concentration 10
  Regrowth, OD600 at 6h or 8h after dilution into drug-free medium: 0.097
[1]; [3]
  EC50: 401 nM

## NC1CCN(c2c(F)cc3c(=O)c(C(=O)O)cn(C4CC4)c3c2Cl)C1 (centres unmarked) [Clinafloxacin]
[1]; S. aureus, drug conc 0.1
  OD600 at 6h or 8h after dilution into drug-free medium (regrowth): 0.489
[1]; S. aureus, drug conc 0.5
  OD600 at 6h or 8h after dilution into drug-free medium (regrowth): 0.280
[1]; S. aureus, drug conc 2.5
  OD600 at 6h or 8h after dilution into drug-free medium (regrowth): 0.154
[1]; S. aureus, drug conc 10
  OD600 at 6h or 8h after dilution into drug-free medium (regrowth): 0.126
[1]; [3]
  EC50: 205 nM

## CS[C@H]1SC[C@H]2C(=O)N(C)[C@@H](C(C)C)C(=O)OC[C@@H](NC(=O)c3cnc4ccccc4n3)C(=O)N[C@@H](C)C(=O)N(C)[C@@H]1C(=O)N(C)[C@@H](C(C)C)C(=O)OC[C@@H](NC(=O)c1cnc3ccccc3n1)C(=O)N[C@@H](C)C(=O)N2C [Echinomycin]
[2]
  induction of the SOS response in growing UPEC cultures: induced the SOS response

## Cn1c(COP(=O)(NCCBr)NCCBr)cnc1[N+](=O)[O-] [Evofosfamide]
[1]; S. aureus, 0.1 μM
  OD600 at 8hr, Mean: 0.802
[1]; S. aureus, 0.5 μM
  OD600 at 8hr, Mean: 0.751
[1]; S. aureus, 2.5 μM
  OD600 at 8hr, Mean: 0.502
[1]; S. aureus, 10 μM
  OD600 at 8hr, Mean: 0.107
[1]; [4]
  EC50: 2660 nM
[2]
  induction of the SOS response in growing UPEC cultures: induced the SOS response
[2]; LPM pH 5.5, Fig. S7C,D
  growth inhibition of growing UPEC: only a slight growth inhibition

## CO[C@H]1/C=C/O[C@@]2(C)Oc3c(C)c(O)c4c(O)c(c(/C=N/N=C/N5CCCCC5)c(O)c4c3C2=O)NC(=O)/C(C)=C\C=C\[C@H](C)[C@H](O)[C@@H](C)[C@@H](O)[C@@H](C)[C@H](OC(C)=O)[C@@H]1C [FCE-22250]
[1]; S. aureus, concentration 0.1
  Regrowth: OD600 after dilution into drug-free medium (mean): 0.461
[1]; S. aureus, concentration 0.5
  Regrowth: OD600 after dilution into drug-free medium (mean): 0.312
[1]; S. aureus, concentration 2.5
  Regrowth: OD600 after dilution into drug-free medium (mean): 0.178
[1]; S. aureus, concentration 10
  Regrowth: OD600 after dilution into drug-free medium (mean): 0.092
[1]; [5]
  EC50: 278 nM

## N#Cc1c(N2C[C@@H]3NCCO[C@H]3C2)c(F)cc2c(=O)c(C(=O)O)cn(C3CC3)c12 [Finafloxacin]
[1]; [5]
  EC50: 4660 nM

## CO[C@@]12[C@H](COC(N)=O)C3=C(C(=O)C(C)=C(N)C3=O)N1C[C@@H]1N[C@@H]12 [Mitomycin C]
[1]; S. aureus, drug concentration 0.1
  Regrowth, OD600 at 6h or 8h after dilution into drug-free medium (average): 0.433
[1]; S. aureus, drug concentration 0.5
  Regrowth, OD600 at 6h or 8h after dilution into drug-free medium (average): 0.163
[1]; S. aureus, drug concentration 2.5
  Regrowth, OD600 at 6h or 8h after dilution into drug-free medium (average): 0.087
[1]; S. aureus, drug concentration 10
  Regrowth, OD600 at 6h or 8h after dilution into drug-free medium (average): 0.106
[1]; [4]
  EC50: 129 nM
[2]
  induction of the SOS response in growing UPEC cultures: induced the SOS response

## COc1c(N2C[C@@H]3CCCN[C@@H]3C2)c(F)cc2c(=O)c(C(=O)O)cn(C3CC3)c12 [Moxifloxacin]
[1]; S. aureus, concentration 0.1
  Regrowth, OD600 at 6h or 8h after dilution into drug-free medium: 0.607
[1]; S. aureus, concentration 0.5
  Regrowth, OD600 at 6h or 8h after dilution into drug-free medium: 0.484
[1]; S. aureus, concentration 2.5
  Regrowth, OD600 at 6h or 8h after dilution into drug-free medium: 0.330
[1]; S. aureus, concentration 10
  Regrowth, OD600 at 6h or 8h after dilution into drug-free medium: 0.150
[1]; [3]
  EC50: 4820 nM
